The record followed here is patent publication US5686421A, “Hydantoin derivates” (Hoechst Aktiengesellschaft, priority 1990, dated 1997).

Where two headings read alike, the source gives them in different places.

For this test, the system named is human GFP (gel-filtered platelets). Nature of the test: Inhibition of platelet aggregation, human gel-filtered platelets stimulated with ADP or thrombin. In kind it is cell-based. The source says: The compounds are particularly tested for their inhibitory action on the aggregation of blood platelets and the adhesion of fibrinogen to blood platelets. Gel-filtered blood platelets from donated human blood are used and are activated with ADP or thrombin.
Inhibition of platelet aggregation to human GFP (gel-filtered platelets) stimulated with adenosine diphosphate (ADP) or thrombin (THR) (Marguerie, Plow and Edgington, J. Biol. Chem. 254 (1979) 5357-5363)

Where [1] appears, read: human GFP stimulated with adenosine diphosphate (ADP), read-out: IC50 (μM) ADP.
[2] abbreviates: human GFP stimulated with thrombin (THR), read-out: IC50 (μM) THR.

By IC50 is commonly meant the concentration at which inhibition is half-maximal. Regarding `N=C(N)NCCC[C@H](N)C(=O)NCC(=O)N[C@@H](CC(=O)O)C(N)=O` [HArgGlyAspNH2], the IC50 is, setting by setting: under setting [1], 500 µM; under setting [2], 200 µM.

`N=C(N)NCCC[C@@H](N)C(=O)NCC(=O)N[C@@H](CC(=O)O)C(N)=O` [HDArgGlyAspNH2]: the IC50 reads like this: under setting [1], 500 µM; under setting [2], 100 µM.

As for `N=C(N)NCCC[C@H]1NC(=O)N(CC(=O)N[C@@H](CC(=O)O)C(N)=O)C1=O` [[5-(R)-(3-guanidino-propyl)-2,4-dioxo-imidazolidin-3-yl]acetyl-L-Asp-amide], the IC50 came to 20 µM under setting [1] and 15 µM under setting [2].

For the compound `COc1ccc(C(NC(=O)[C@H](CC(=O)O)NC(=O)CN2C(=O)N[C@H](CCCN=C(N)N)C2=O)c2ccc(OC)cc2)cc1` [[5-(R)-(3-guanidino-propyl)-2,4-dioxo-imidazolin-3-yl]acetyl Asp 4,4'-dimethoxybenzhydrylamide], the 50% inhibitory concentration (IC50) was 4 µM under setting [1] and 3 µM under setting [2].

Take `COc1ccc(C(NC(=O)[C@H](CC(=O)O)NC(=O)CN2C(=O)N[C@@H](CCCN=C(N)N)C2=O)c2ccc(OC)cc2)cc1` [[5-(S)-(3-guanidino-propyl)-2,4-dioxo-imidazolidin-3-yl]acetyl-Asp 4,4'-dimethoxybenzhydrylamide]: the half-maximal inhibitory concentration (IC50) under setting [1] is 10 µM and the 50% inhibitory concentration (IC50) under setting [2] turned out to be 4 µM.

On to `NC(=O)[C@H](CC(=O)O)NC(=O)CN1C(=O)N[C@@H](CCCN=C(N)N)C1=O` [[5-(S)-(3-guanidinopropyl)-2,4-dioxo-imidazolidin-3-yl]acetyl-Asp-amide], for which the IC50 under setting [1] worked out at 40 µM and the 50% inhibitory concentration (IC50) under setting [2] amounted to 40 µM.

ZDArgGlyAspNH2: the half-maximal inhibitory concentration (IC50) is, setting by setting: under setting [1], 100 µM; under setting [2], 80 µM.

Turning to ZDArgGlyAspNHMbh, the IC50 reads like this: under setting [1], 20 µM; under setting [2], 20 µM.
